# Source: patent publication US20180000942A1, “COMPOSITIONS FOR DRUG ADMINISTRATION” (priority 2013, published 2018)
# Legend:
# [1] = New Zealand White, rabbit, in vivo
# Description: Thereafter, the animals return to consciousness. At individual time point over a two hour period, 1 mL blood samples are collected from the central ear artery. […] All samples are stored at −70° C. until assaying for melatonin. Melatonin is measured using a commercial ELISA kit manufactured by GenWay Biotech Inc., San Diego, Calif.
# human nasal epithelium = test: Irritation of nasal mucosa on daily intranasal administration; details: […] in OTC nasal saline, 33 days
# blood glucose [2] = test: Insulin eye drops with […] and nose drops with 0.5% tetradecyl maltoside, blood glucose; assay type: in vivo, rat; details: insulin nose drops with 0.5% tetradecyl maltoside added after 120 min
# [3] = Bioavailability of antisense oligonucleotide given intrajejunally; assay type: in vivo, Cynomolgus monkeys; details: AUC over 240 minutes relative to reference
# Description: An approximately 7,000 Dalton antisense oligonucleotide (ASO) with a modified backbone (phosphorothioate oligonucleotide as described in U.S. Pat. No. 7,132,530) mixed with alkylglycoside tetradecyl-beta-D-maltoside (Intravail™), was administered to six Cynomolgus monkeys canulated into the jejunum at a dose of 10 mg/kg. The animals were fasted prior to administration. Test agents were dissolved in PBS buffer and injected through the cannula into the jejunum of each animal in a 1.5 mL volume or administered subcutaneously (s.c.) as noted in Table VIII.
# The protocol involved a 3 way crossover in which each animal had the first 3 test agents in Table VIII administered on 3 different dates. There was a 1 week washout period between dosing dates. […] Analysis of the blood levels was conducted using quantitative analysis involving solid phase extraction using cationic polystyrene nanoparticles. […]
# Quantitative analysis was performed with capillary gel electrophoresis of the extracted samples. […] Using the data obtained from CGE analysis, quantitation of phosphorothioate oligonucleotides was carried out. The amount of oligonucleotides in the samples (nON) was calculated using the following formula: […]
# The relative bioavailabilities were determined as the ratio of each AUC divided by the AUC for the intravenously administered drug. […]
# blood glucose [4] = test: Insulin eye drops with absorption enhancer in xylazine/ketamine anesthetized rats, blood glucose
# in vivo = details: other: buccal, 60 mg
structure (smiles),measurement,setting,value
"COc1ccc2[nH]cc(CCNC(C)=O)c2c1 [melatonin, 5-methoxy-N-acetyltryptamine]",time to maximal concentration versus tablets without alkyl saccharides,[1],approximately one half the time
"CCCCCCCCCCCCCCO[C@@H]1O[C@H](CO)[C@@H](O[C@H]2O[C@H](CO)[C@@H](O)[C@H](O)[C@H]2O)[C@H](O)[C@H]1O [Tetradecyl Maltoside, n-tetradecyl-4-O-α-D-glucopyranosyl-β-D-glucopyranoside]",irritation of the nasal mucosa,human nasal epithelium,no observable irritation
same,Blood Glucose,blood glucose [2]; time 150 min,74 mg/dL
same,Blood Glucose,blood glucose [2]; time 165 min,76 mg/dL
same,Blood Glucose,blood glucose [2]; time 180 min,68 mg/dL
same,Average Bioavailability (n = 6),[3],up to 18%
same,"effect as absorption enhancer for ocular insulin (blood glucose lowering), in words",blood glucose [4]; 0.5% enhancer,effective
same,"effect as absorption enhancer for ocular insulin (blood glucose lowering), in words",blood glucose [4]; […] enhancer,effective
"O=C(c1ccc(OCCN2CCCCC2)cc1)c1c(-c2ccc(O)cc2)sc2cc(O)ccc12 [raloxifene, Raloxifene]",bioavailability,in vivo,≥ 4%
